These results are taken from patent US20200325140A1, “FUSED BICYCLIC COMPOUNDS FOR THE TREATMENT OF DISEASE” (Akarna Therapeutics, Ltd., priority 2016, published 2020).

Broadly, the EC50 is the midpoint of the concentration-response curve. Low values mean higher potency in that assay, high ones lower potency in that assay.

Molecules are shown by their SMILES.

The target of this assay is T1, FXR (Homo sapiens, UniProt Q96RI1).
T1 sequence (Q96RI1 1-486): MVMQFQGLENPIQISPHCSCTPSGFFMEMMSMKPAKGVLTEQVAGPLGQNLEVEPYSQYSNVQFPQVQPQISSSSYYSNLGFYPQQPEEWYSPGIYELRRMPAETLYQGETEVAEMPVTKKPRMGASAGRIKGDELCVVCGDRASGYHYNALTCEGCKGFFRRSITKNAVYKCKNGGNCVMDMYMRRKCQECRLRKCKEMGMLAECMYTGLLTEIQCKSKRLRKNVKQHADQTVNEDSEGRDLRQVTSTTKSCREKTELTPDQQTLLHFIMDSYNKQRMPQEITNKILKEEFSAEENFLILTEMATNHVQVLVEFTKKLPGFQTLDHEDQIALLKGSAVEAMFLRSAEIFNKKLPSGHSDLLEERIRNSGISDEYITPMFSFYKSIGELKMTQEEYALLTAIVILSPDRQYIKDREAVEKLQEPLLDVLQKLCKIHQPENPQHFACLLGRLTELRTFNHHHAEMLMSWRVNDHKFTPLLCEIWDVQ
As to the kind of experiment: FXR Agonist Assay (Gaussia luciferase reporter in cells). The format is cell-based. Particulars: 20 hours incubation, 10-point dilution, duplicate. Here is the method:
Starting from 3.33 mM of compound in DMSO solution, a 10-point 3-fold serial dilution was made by diluting 5 μL of compound into 10 μL of DMSO. The serially diluted compound was then diluted 1:33 into DMEM. This medium was then diluted ten-fold into the culture medium with the cells (10 μL/well). All concentration points are assayed in duplicate. Plates were incubated at 37° C. for 20 hours. After the incubation, 20 μL of culture medium were removed from each well and mixed with 50 μL of assay solution (Pierce™ Gaussia Luciferase Flash Assay Kit). The luminescence was measured immediately after addition of the Luc substrate with an Envision microplate reader. The raw data was uploaded to CDD and dose-response curves were generated using the Levenberg-Marquardt algorithm integrated into CDD. A negative control DMSO is included on each plate and used to normalize the data with the CDD built-in normalization function.
In turn, `CC(C)OC(=O)C1=CN(C(=O)c2ccc(OCCN(C)C)cc2)CC(C)(C)c2c(C(F)(F)F)n[nH]c21` [Compound 1, (E)-isopropyl 6-(4-(2-(dimethylamino)ethoxy)benzoyl)-4,4-dimethyl-3-(trifluoromethyl)-1,4,5,6-tetrahydropyrazolo[3,4-d]azepine-8-carboxylate] displayed an EC50 of 200 to 1000 nM.

For the compound `CC(C)OC(=O)C1=CN(C(=O)c2ccc(OCCn3ccnc3)cc2)CC(C)(C)c2c(C(F)(F)F)n[nH]c21` [Compound 2, (E)-isopropyl 6-(4-(2-(1H-imidazol-1-yl)ethoxy)benzoyl)-4,4-dimethyl-3-(trifluoromethyl)-1,4,5,6-tetrahydropyrazolo[3,4-d]azepine-8-carboxylate], the EC50 was less than 200 nM.

`CC(C)OC(=O)C1=CN(C(=O)c2ccc(OCCN3CCN(C)CC3)cc2)CC(C)(C)c2c(C(F)(F)F)n[nH]c21` [Compound 3, (E)-isopropyl 4,4-dimethyl-6-(4-(2-(4-methylpiperazin-1-yl)ethoxy)benzoyl)-3-(trifluoromethyl)-1,4,5,6-tetrahydropyrazolo[3,4-d]azepine-8-carboxylate] showed an EC50 of 200 to 1000 nM. Under `CC(C)OC(=O)C1=CN(C(=O)c2ccc(OCCN3CCCC3)cc2)CC(C)(C)c2c(C(F)(F)F)n[nH]c21` [Compound 4, (E)-isopropyl 4,4-dimethyl-6-(4-(2-(pyrrolidin-1-yl)ethoxy)benzoyl)-3-(trifluoromethyl)-1,4,5,6-tetrahydropyrazolo[3,4-d]azepine-8-carboxylate] stands 1000 to 10000 nM. In turn, `CC(C)OC(=O)C1=CN(C(=O)c2cc(F)c(OCCN3CCOCC3)c(F)c2)CC(C)(C)c2c(C(F)(F)F)n[nH]c21` [Compound 5, (E)-isopropyl 6-(3,5-difluoro-4-(2-morpholinoethoxy)benzoyl)-4,4-dimethyl-3-(trifluoromethyl)-1,4,5,6-tetrahydropyrazolo[3,4-d]azepine-8-carboxylate] displayed an EC50 of less than 200 nM.
